Laboratory results from patent US12371454B2, “Cyclic peptide compound having Kras inhibitory action” (priority 2019, dated 2025).
Positions of bridges follow the written chain, without caps; N, C: chain ends. Non-standard residues stand in square brackets, D forms with d. Residues, ends and D or L forms follow the SMILES beside them. *: point of attachment. hPhe(3,5-F2-4-CF3) = N[C@@H](CCc1cc(F)c(C(F)(F)F)c(F)c1)C(=O)O; hPhe(3-Cl-4-CF3) = N[C@@H](CCc1ccc(C(F)(F)F)c(Cl)c1)C(=O)O; hPhe(3-F,4-CF3) = N[C@@H](CCc1ccc(C(F)(F)F)c(F)c1)C(=O)O; hPhe(4-CF3) = N[C@@H](CCc1ccc(C(F)(F)F)cc1)C(=O)O; NMeAbu(4,4,4-F3) = CN[C@@H](CC(F)(F)F)C(=O)O; NMePhe(4-Cl) = CN[C@@H](Cc1ccc(Cl)cc1)C(=O)O; NMePhe(4-Me) = CN[C@@H](Cc1ccc(C)cc1)C(=O)O; NMeNle(6-CHF2) = CN[C@@H](CCCCC(F)F)C(=O)O; NMePhe(4-F) = CN[C@@H](Cc1ccc(F)cc1)C(=O)O; NMeGly(cPent) = CN[C@H](C(=O)O)C1CCCC1; Phe(3-I) = N[C@@H](Cc1cccc(I)c1)C(=O)O; Pro(4,4-F2) = O=C(O)[C@@H]1CC(F)(F)CN1; NMeCha = CN[C@@H](CC1CCCCC1)C(=O)O; NMeChg = CN[C@H](C(=O)O)C1CCCCC1; NMeF = CN[C@@H](Cc1ccccc1)C(=O)O; NMeE = CN[C@@H](CCC(=O)O)C(=O)O; NMeD = CN[C@@H](CC(=O)O)C(=O)O; NMeL = CN[C@@H](CC(C)C)C(=O)O; Chg = N[C@H](C(=O)O)C1CCCCC1; NMeV = CN[C@H](C(=O)O)C(C)C; d(β3hA) = C[C@@H](N)CC(=O)O; NMeA = CN[C@@H](C)C(=O)O; NMeAib = CNC(C)(C)C(=O)O; Nle = CCCC[C@H](N)C(=O)O; Piperidide = C1CCN(*)CC1; Pyrrolidide = C1CCN(*)C1; dNMeA = CN[C@H](C)C(=O)O; Ac5c = NC1(C(=O)O)CCCC1; Sar = CNCC(=O)O

biological target: T1, Kras and SOS1 (biotin-tagged human Kras loaded with GDP, His-tagged human SOS1) (Homo sapiens, UniProt P01116, G12D); experiment: Protein-protein interaction inhibition between Kras and SOS1 (KrasGl2D-SOS PPI) using AlphaScreen; format: binding; conditions: AlphaScreen; biotin-tagged human Kras loaded with GDP, His-tagged human SOS1; read-out: KRAS G12D-SOS PPI IC50
T1 construct: made in house; host or cells: E. coli (stated for Kras only)
T1 sequence (P01116 1-188 isoform P01116-2 G12D): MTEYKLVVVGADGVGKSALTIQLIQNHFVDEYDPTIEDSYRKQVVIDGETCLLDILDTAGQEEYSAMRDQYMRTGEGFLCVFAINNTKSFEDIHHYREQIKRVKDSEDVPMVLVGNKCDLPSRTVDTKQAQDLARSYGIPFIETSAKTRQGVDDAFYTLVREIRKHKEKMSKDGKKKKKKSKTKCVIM
Summary of the method: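 Donor beads (nickel) hold His-SOS1; acceptor beads (streptavidin) hold biotin-Kras bound to GDP. Signal measured at 520-620 nm following 680 nm excitation.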

Question: For `CC[C@H](C)[C@@H]1NC(=O)[C@H](CC(C)C)N(C)C(=O)C[C@@H](C(=O)N2CCCCC2)N(C)C(=O)[C@H](CC(C)C)N(C)C(=O)C2(CCCC2)NC(=O)[C@@H]2CCCN2C(=O)[C@H](CCc2ccc(C(F)(F)F)c(F)c2)NC(=O)CN(C)C(=O)[C@H](Cc2ccc(Cl)cc2)N(C)C(=O)CN(C)C(=O)CN(C)C1=O` [Compound 1061] ([NMeL]I[Sar][Sar][NMePhe(4-Cl)][Sar][hPhe(3-F,4-CF3)]P[Ac5c][NMeL][NMeD]-Piperidide; lactam N-11), which IC50 is on record?
Answer: 14 nM

Question: How did the IC50 turn out when `CC[C@H](C)[C@@H]1NC(=O)[C@H](C)N(C)C(=O)C[C@@H](C)NC(=O)[C@H](C2CCCC2)N(C)C(=O)C2(CCCC2)NC(=O)[C@@H]2CCCN2C(=O)[C@H](CCc2ccc(C(F)(F)F)c(Cl)c2)NC(=O)[C@@H](C)N(C)C(=O)[C@H](Cc2ccc(C)cc2)N(C)C(=O)CN(C)C(=O)CN(C)C1=O` [Compound 1465] (cyclo([Ac5c][NMeGly(cPent)][d(β3hA)][NMeA]I[Sar][Sar][NMePhe(4-Me)][dNMeA][hPhe(3-Cl-4-CF3)]P)) was run?
Answer: 51 nM

Question: For `CC[C@H](C)[C@@H]1NC(=O)[C@H](C)N(C)C(=O)C[C@@H](C(=O)N2CCCC2)NC(=O)[C@H](CC(C)C)N(C)C(=O)[C@H](Cc2ccccc2)N(C)C(=O)[C@@H]2CCCN2C(=O)[C@H](CCc2ccc(C(F)(F)F)cc2)NC(=O)CN(C)C(=O)[C@H](Cc2ccc(Cl)cc2)N(C)C(=O)CN(C)C(=O)CN(C)C1=O` [Compound 1048] ([NMeA]I[Sar][Sar][NMePhe(4-Cl)][Sar][hPhe(4-CF3)]P[NMeF][NMeL]D-Pyrrolidide; lactam N-11), which IC50 is on record?
Answer: 18 nM

Question: How did the IC50 turn out when `CC[C@H](C)[C@@H]1NC(=O)[C@H](CC(C)C)N(C)C(=O)C[C@@H](C(=O)N2CCCCC2)N(C)C(=O)[C@H](CC(C)C)NC(=O)C(C)(C)N(C)C(=O)[C@H](Cc2ccc(OC)cc2)NC(=O)[C@H](Cc2cccc(I)c2)NC(=O)CN(C)C(=O)[C@H](CC2CCCCC2)N(C)C(=O)CN(C)C(=O)CN(C)C1=O` [Compound 320] ([NMeL]I[Sar][Sar][NMeCha][Sar][Phe(3-I)]Y(Me)[NMeAib]L[NMeD]-Piperidide; lactam N-11) was run?
Answer: 9.9 nM

Question: With `CCCC[C@@H]1NC(=O)[C@H](Cc2cccc(I)c2)NC(=O)CN(C)C(=O)[C@H](Cc2ccc(C)cc2)N(C)C(=O)CN(C)C(=O)CN(C)C(=O)[C@H]([C@@H](C)CC)NC(=O)[C@H](CC(C)C)N(C)C(=O)C[C@@H](C(=O)N2CCCCC2)N(C)C(=O)[C@H](CC(C)C)NC(=O)[C@H](CCC(=O)N(C)C)N(C)C1=O` [Compound 2100, 3-[(3S,6S,9S,12S,18S,27S,30S,34S)-9-butyl-12-[(3-iodophenyl)methyl]-3,30-diisobutyl-1,7,16,19,22,25,31-heptamethyl-27-[(1S)-1-methylpropyl]-2,5,8,11,14,17,20,23,26,29,32-undecaoxo-34-(piperidine-1-carbonyl)-18-(p-tolylmethyl)-1,4,7,10,13,16,19,22,25,28,31-undecazacyclotetratriacont-6-yl]-N,N-dimethyl-propanamide] ([NMeL]I[Sar][Sar][NMePhe(4-Me)][Sar][Phe(3-I)][Nle][NMeE](NMe2)L[NMeD]-Piperidide; lactam N-11) as the compound, how does the IC50 read?
Answer: 15 nM

Question: With `CC[C@H](C)[C@@H]1NC(=O)[C@H](CC(C)C)N(C)C(=O)C[C@@H](C)NC(=O)[C@H](CC(C)C)N(C)C(=O)C2(CCCC2)NC(=O)[C@@H]2CCCN2C(=O)[C@H](CCc2ccc(C(F)(F)F)c(F)c2)NC(=O)CN(C)C(=O)[C@H](CCCCC(F)F)N(C)C(=O)CN(C)C(=O)CN(C)C1=O` [Compound 1515] (cyclo([Ac5c][NMeL][d(β3hA)][NMeL]I[Sar][Sar][NMeNle(6-CHF2)][Sar][hPhe(3-F,4-CF3)]P)) as the compound, how does the IC50 read?
Answer: 77 nM

Question: With `CC[C@H](C)[C@@H]1NC(=O)[C@H](CC(C)C)N(C)C(=O)C[C@@H](C(=O)N2CCCCC2)N(C)C(=O)[C@H](C2CCCCC2)NC(=O)C2(CCCC2)NC(=O)[C@@H]2CCCN2C(=O)[C@H](CCc2ccc(C(F)(F)F)c(Cl)c2)NC(=O)CN(C)C(=O)[C@H](CC2CCCCC2)N(C)C(=O)CN(C)C(=O)CN(C)C1=O` [Compound 1354] ([NMeL]I[Sar][Sar][NMeCha][Sar][hPhe(3-Cl-4-CF3)]P[Ac5c][Chg][NMeD]-Piperidide; lactam N-11) as the compound, how does the IC50 read?
Answer: 7.7 nM

Question: Which IC50 does the source give for `CC[C@H](C)[C@@H]1NC(=O)[C@H](C)N(C)C(=O)C[C@@H](C(=O)N2CCCCC2)N(C)C(=O)[C@H](C(C)C)N(C)C(=O)C2(CCCC2)NC(=O)[C@H](Cc2ccc(F)cc2)N(C)C(=O)[C@H](CCc2ccc(C(F)(F)F)c(Cl)c2)NC(=O)CN(C)C(=O)[C@H](CC2CCCCC2)N(C)C(=O)CN(C)C(=O)CN(C)C1=O` [Compound 821] ([NMeA]I[Sar][Sar][NMeCha][Sar][hPhe(3-Cl-4-CF3)][NMePhe(4-F)][Ac5c][NMeV][NMeD]-Piperidide; lactam N-11) here?
Answer: 12 nM

Question: How did the IC50 turn out when `CC[C@H](C)[C@@H]1NC(=O)[C@H](CC(F)(F)F)N(C)C(=O)C[C@@H](C(=O)N2CCCC2)N(C)C(=O)[C@H](C2CCCCC2)N(C)C(=O)C2(CCCC2)NC(=O)[C@@H]2CC(F)(F)CN2C(=O)[C@H](CCc2cc(F)c(C(F)(F)F)c(F)c2)NC(=O)CN(C)C(=O)[C@H](CC2CCCCC2)N(C)C(=O)CN(C)C(=O)CN(C)C1=O` [Compound 1281] ([NMeAbu(4,4,4-F3)]I[Sar][Sar][NMeCha][Sar][hPhe(3,5-F2-4-CF3)][Pro(4,4-F2)][Ac5c][NMeChg][NMeD]-Pyrrolidide; lactam N-11) was run?
Answer: 0.42 nM
